Where two headings read alike, the source gives them in different places.
Columns and labels:
ACC-MESO-1 cells = details: read-out: IC50 (cytotoxic effects); cited from earlier work
[1] = system: shrimp Palaemon paucidens; assay: Crustacean lethality test, injection into abdominal cavity of shrimp; type: in vivo; details: for LD100 (lethal dose 100%): injection into abdominal cavity, monitored for 4 h
Protocol: The shrimp Palaemon paucidens (average weight, 0.5 g) was used for the crustacean lethality test. Tested samples were suspended with 1% Tween 20 (polyoxyethylene (20) sorbitan monolaurate). Two micro liter of each sample suspension was injected into the abdominal cavity of the shrimp (n = 3–5). The shrimp were monitored every 30 min for 4 h. Through the lethality tests, the lethal dose 100% values (LD100) were determined. One percent Tween 20 without sample was used as reference. LD100 was defined as weight of sample per unit weight of crustacean.

HeLa cells = details: read-out: IC50 (cytotoxic effects); cited from earlier work
[2] = Cytotoxicity assay toward L1210 leukemia cells; type: cell-based; details: mouse
Protocol: The cytotoxic activities of compounds 1 and 2 were tested toward L1210 mouse leukemia cells. The detailed methods were reported previously. Differences with the reported methods were (a) samples were dissolved with methanol; and (b) the methanol dissolved samples were applied onto each well and air-dried before the addition of L1210 cells.

PKCδ-C1B peptide [3] = target: T1, PKCδ-C1B peptide (Mus musculus, UniProt P28867); assay: Competition binding assay with [3H]PDBu using synthetic PKCδ-C1B peptide
T1 construct: made in house; host or cells: chemical peptide synthesis (no expression host)
Protocol: The binding of [^3H]PDBu to the PKCδ-C1B peptide was evaluated by the procedure of Sharkey and Blumberg with modifications as reported previously using 50 mM tris-maleate buffer (pH 7.4 at 4 °C), 13.8 nM PKCδ-C1B peptide, 20 nM [^3H]PDBu (18.7 Ci/mmol, Perkin-Elmer Life Sciences), 50 μg/mL 1,2-dioleoyl-sn-glycero-3-phospho-L-serine (Sigma, St. Louis, MO, USA), 3 mg/mL bovine γ-globulin (Sigma, St. Louis, MO, USA), and various concentrations of inhibitors. The concentration of the properly folded PKCδ-C1B peptide was estimated to be about 3 nM on the basis of Bmax values of Scatchard analyses reported previously. Binding affinity was evaluated based on the concentration required to cause 50% inhibition of the specific binding of [^3H]PDBu, the IC50, which was calculated with Microsoft Excel. The inhibition constant, Ki, was calculated by the method of Sharkey and Blumberg.

PKCδ-C1B peptide [4] = target: T1, PKCδ-C1B peptide; details: read-out: Ki for binding to PKCδ-C1B; cited from earlier work

T1 sequence (P28867 231-281 limits assumed): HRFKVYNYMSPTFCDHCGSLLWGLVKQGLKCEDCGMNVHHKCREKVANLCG

Compound | IC50 (ACC-MESO-1 cells) [µM] | Paralysis at dose less than the lethal amount ([1]; injection) | LD100 (lethal dose 100%) [1] [mg/kg] | IC50 (HeLa cells) [µM] | IC50 [2] [µM] | Ki (PKCδ-C1B peptide [3]) [µM] | Ki (PKCδ-C1B peptide [4]) [µM] | Dose causing paralysis ([1]; injection, dose below the lethal dose) [mg/kg] | Times lower binding affinity for PKC compared to lyngbyatoxin A (2) (PKCδ-C1B peptide [3]; PKCδ-C1B peptide, relative to compound 2)
C=C[C@@](C)(CCC=C(C)C)c1ccc2c3c(c[nH]c13)C[C@@H](CO)NC(=O)[C@H](C(C)C)N2C [compound 2, Lyngbyatoxin A] | 11 | Paralysis was not observed | 5 | 35 | 8.1 | 0.00011 | – | – | –
CO[C@@H](CC[C@H](C)[C@H]1O[C@@]23C[C@H](OC(=O)C[C@H]([C@@H](C)O)OC(=O)C[C@](O)(O2)[C@H](C)CC3(C)C)[C@@H]1C)c1cccc(O)c1 [DATX, debromoaplysiatoxin] | – | – | – | – | – | – | 0.0002 | – | –
C=C[C@@](C)(CCC=C(C)C)c1ccc2c3c(c[nH]c13)C[C@@H](CO)NC(=O)[C@@H](C(C)C)N2C [compound 1, 12-Epi-lyngbyatoxin A] | – | – | 7.5 | – | 20.4 | 0.017 | – | 0.9 | more than 100 times
CO[C@@H](CC[C@H](C)[C@H]1O[C@@]23C[C@H](OC(=O)C[C@H]([C@@H](C)O)OC(=O)C[C@](O)(O2)[C@H](C)CC3(C)C)[C@@H]1C)c1cc(O)ccc1Br [ATX, Aplysiatoxin] | – | – | – | – | – | – | 0.00041 | – | –
